Reference: US8981112B2, “Inhibitors of β-secretase” (Boehringer Ingelheim International GmbH, priority 2012, dated 2015)

Key:
[1] = biological target: truncated human beta-secretase, BACE1 (amino acids 1-454) (Homo sapiens (Human), UniProt P56817); experiment: BACE1 Assay (Assay 1), fluorescence quench assay; type: biochemical; conditions: read-out: BACE1 IC50 nM (assay 1)
Procedure: The substrate was dissolved at 1 mg/ml in DMSO.
The assay was performed in the presence of OptiMEM (supernatant collected over 24 h and cleared from cellular debris by centrifugation) containing the ectodomain of BACE1, 25 μl water containing the desired 2-fold concentration of test compound and 2% DMSO, 1 μM substrate peptide, 20 mM NaOAc, pH 4.4, and 0.04% Triton-X100 in a total assay volume of 50 μl in a 384 well plate. In general, 25 μl of compound dilution were given to the plate followed by the addition of 10 μl of BACE1 containing OptiMEM™ diluted 1:10 in water with 0.2% Triton X-100. The reaction was started with the addition of 15 μl substrate in NaOAc buffer. The reaction was incubated at rt (dark) in an Envision® multilabel reader (Perkin Elmer) and the cleavage of the substrate was recorded as kinetic for 60 min at ex: 485 nm, em: 538 nm. Blank wells containing no enzyme were included on each plate.
The intensity of fluorescence was regressed against time in order to derive velocities of reaction in all 384 wells. These velocities were used for calculating percent control using an uninhibited control containing 1% DMSO as 100% and blank control performed in the absence of enzyme as 0%. IC50 values were calculated by fitting percent control vs. test compound concentration using Assay Explorer.

[2] = test system: brain amyloid peptides Aβ1-x; experiment: Rat Brain Aβ Lowering Assay (Assay 5); type: in vivo; conditions: 3 hrs after dosing
Procedure: Rat Brain Aβ Lowering Assay (Assay 5)
The animals were sacrificed 3 hrs after dosing, and brains were excised, dissected into cerebellum and left and right cerebra and flash-frozen in liquid nitrogen.
The cerebrum was homogenized (5 volumes per weight) in 20 mM Tris-HCL, pH 8.5, 0.2% Triton-X100 supplemented with protease inhibitors (complete, Roche Applied Science) at 4° C. using a glass Dounce homogenizer. The homogenate was centrifuged at 120,000×g for 60 min at 4° C., and the supernatant was collected and analyzed for Ab1-x using immunoassay with chemiluminescent detection (Meso-Scale Discovery, Rockville, Md. (MSD)).
Streptavidin 96-well plates (MSD) were pre-blocked with 5% Blocker A solution (MSD) for 1 hr at rt on an orbital shaker and washed 4 times with phosphate buffered saline (PBS). The wells were pre-coated with 20 ng/well of biotinylated antibody SIG-39155 (Clone M3.2, specific for amino acids 10-15 of the rodent Aβ) for 1 hr at rt and washed 4 times with PBS. For Aβ1-x analysis, 25 μl of either the cleared brain lysates or Aβ1-40 standards (8-500 pg/ml, with 2× increment) were incubated for 1 hr at rt with constant shaking. The wells were washed 4 times with PBS, and 25 μl of the detection antibody (Sulfo-TAG labeled anti-Aβ40 antibody supplied by MSD) was added and incubated for 1 hr at rt. After 4 washes with PBS, 150 μl of the chemiluminescence detection reagent (Read Buffer T, MSD) was added, and the plate was read on an MSD Sector Imager 6000 instrument. The calibration curve was fit into a non-linear four-parameter regression model, and the Aβ1-x concentrations were calculated for each well containing the cleared brain lysates. The percent of Aβ lowering was calculated based on the difference with the average Aβ concentration obtained for the brains from the animals treated with vehicle alone.

[3] = In Vitro Phospholipidosis Assay (Assay 4), Nile red staining; type: cell-based; conditions: human, first effect concentration, U937 cells, read-out: Phospholipidosis FEC IC50 μM (assay 4)
Procedure: In Vitro Phospholipidosis Assay (Assay 4)
The phospholipidogenic potential of test compounds was assayed using the human hematopoetic U937 cell line. The test principle was to analyze the phospholipid content by staining the cells with the fluorescent dye Nile red.
U937 cells were seeded into cell culture plates at 0.5×10^6 cells/mL in RPMI medium containing 10% FBS, 1% DMSO, and 0.005% gentamicin. The cells were then cultivated with or without different concentrations of test compounds for 48 h under standard culture conditions.
For harvesting the cells were centrifuged at 130×g for 4 min and washed once with PBS. Then 2×0.5 mL cell suspension was prepared for non-fixed cell measurement (0.5 mL for propidium iodide (PI) viability measurement and 0.5 mL for Nile red measurement).
The remaining cells were fixed with 3.7% formaldehyde for 30 min. After a further centrifugation step cells were resuspended with 1.3 mL Nile red working solution (1 μg/mL) and incubated for 5 min at rt. The cell suspension was then washed twice with 3 mL PBS and centrifuged with 130×g for 4 min. The supernatant was discarded and the cells were resuspended with 0.5 mL PBS and kept for flow cytometry measurement. For Nile red staining of the 0.5 mL non-fixed cell samples, 50 μL of a ready to use Nile red solution (10 μg/mL) were added per sample. Samples were kept on ice for 5 min. Thereafter, they were washed once with 4 mL PBS (4° C., 250×g for 8 min) and finally resuspended in 400 μL PBS and kept for flow cytometry measurement.
For the viability measurement, 12.5 μL of the ready to use PI solution (10 μg/mL) were added to the 0.5 mL non-fixed cell suspension. After 15 min of incubation on ice, the samples were measured by flow cytometry using a Coulter Epics XL/MCL flow cytometer.
The viability of the cells of each sample was determined by flow cytometry measurement of the PI content at channel 2 (568-590 nm). Cut-off gates for the fluorescence-dependent differentiation between live and dead cells were defined based on the analysis of cell culture medium control samples.
Only samples with a cell viability of >=90% relative to control samples were analyzed for phospholipidosis. For that, each Nile red sample (non-fixed and fixed samples) was measured by flow cytometry at channel 1 (504-541 nm) and channel 4 (660-680 nm).
For each channel, relative Nile red fluorescence intensity of a test sample was calculated compared to control samples and expressed as percentage of control fluorescence intensity. The assessment of the phospholipidogenic potential and the first effect concentration (FEC) of a test compound was done manually based on the fluorescence intensities at both wavelengths for the fixed cells as well as for the non-fixed cells.

Chain of truncated human beta-secretase, BACE1 (amino acids 1-454) (P56817 22-454): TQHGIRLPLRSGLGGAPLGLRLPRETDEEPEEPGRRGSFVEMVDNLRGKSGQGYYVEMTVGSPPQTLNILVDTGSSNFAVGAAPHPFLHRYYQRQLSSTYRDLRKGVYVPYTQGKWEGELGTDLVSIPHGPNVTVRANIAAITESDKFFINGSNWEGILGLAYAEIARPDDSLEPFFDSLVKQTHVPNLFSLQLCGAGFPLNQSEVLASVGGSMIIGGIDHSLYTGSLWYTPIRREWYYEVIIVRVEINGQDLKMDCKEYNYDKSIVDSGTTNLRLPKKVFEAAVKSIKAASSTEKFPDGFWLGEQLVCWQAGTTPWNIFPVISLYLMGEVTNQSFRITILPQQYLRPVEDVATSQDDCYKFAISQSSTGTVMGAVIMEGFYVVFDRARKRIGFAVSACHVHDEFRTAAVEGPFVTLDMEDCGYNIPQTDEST

For `CO[C@H]1[C@H](C)C[C@@]2(Cc3ccc(C#N)cc3[C@]23N=C(N)N(C[C@@H]2CCO2)C3=O)C[C@@H]1C` (stereo in doubt) [Example 18], the IC50 [1] was 9 nM, the “% Aβ Reduction” value ([2]; single oral dose 25 mg/kg) was 56% and the IC50 at 48 h [3] was > 400 µM.
With `CC[C@@H]1C[C@]2(CC[C@H]1OC)Cc1ccc(C#N)cc1[C@]21N=C(N)N(CC2CCOCC2)C1=O` [Example 2] the IC50 [1] was 8 nM, the “% Aβ Reduction” value ([2]; single oral dose 30 mg/kg) was 42% and the IC50 at 48 h [3] was 200 µM.
For `CC[C@@H]1C[C@]2(CC[C@H]1OC)Cc1ccc(C#N)cc1[C@]21N=C(N)N(CC2(F)CCOCC2)C1=O` [Example 4], the IC50 [1] was 5 nM, the “% Aβ Reduction” value ([2]; single oral dose 25 mg/kg) was 75% and the IC50 at 48 h [3] was > 400 µM.
In the case of `CO[C@H]1CC[C@@]2(Cc3ccc(C#N)cc3[C@]23N=C(N)N(CC2(C)COC2)C3=O)C[C@@H]1C` [Example 8], the IC50 [1] was 5 nM, the “% Aβ Reduction” value ([2]; single oral dose 25 mg/kg) was 37% and the IC50 at 48 h [3] was > 200 µM.
For `CO[C@H]1CC[C@@]2(Cc3ccc(C#N)cc3[C@]23N=C(N)N(Cc2ccncn2)C3=O)C[C@@H]1C` [Example 9], the IC50 [1] was 9 nM, the “% Aβ Reduction” value ([2]; single oral dose 25 mg/kg) was 37% and the IC50 at 48 h [3] was 400 µM.
With `CO[C@H]1[C@H](C)C[C@@]2(Cc3ccc(C#N)cc3[C@]23N=C(N)N(C2COC2)C3=O)C[C@@H]1C` [Example 12] the IC50 [1] was 3 nM, the “% Aβ Reduction” value ([2]; single oral dose 25 mg/kg) was 39% and the IC50 at 48 h [3] was 400 µM.
In the case of `CO[C@H]1[C@H](C)C[C@@]2(Cc3ccc(C#N)cc3[C@]23N=C(N)N(CC2COC2)C3=O)C[C@@H]1C` [Example 13], the IC50 [1] was 9 nM, the “% Aβ Reduction” value ([2]; single oral dose 30 mg/kg) was 47% and the IC50 at 48 h [3] was 200 µM.
In the case of `CO[C@H]1[C@H](C)C[C@@]2(Cc3ccc(C#N)cc3[C@]23N=C(N)N(C[C@H]2CCCO2)C3=O)C[C@@H]1C` [Example 14], the IC50 [1] was 5 nM, the “% Aβ Reduction” value ([2]; single oral dose 25 mg/kg) was 67% and the IC50 at 48 h [3] was > 200 µM.
With `CO[C@H]1[C@H](C)C[C@@]2(Cc3ccc(C#N)cc3[C@]23N=C(N)N(C[C@@H]2CCCO2)C3=O)C[C@@H]1C` [Example 15] the IC50 [1] was 11 nM, the “% Aβ Reduction” value ([2]; single oral dose 25 mg/kg) was 62% and the IC50 at 48 h [3] was 200 µM.
For `CO[C@H]1[C@H](C)C[C@@]2(Cc3ccc(C#N)cc3[C@]23N=C(N)N(CC(C)(C)F)C3=O)C[C@@H]1C` [Example 17], the IC50 [1] was 14 nM, the “% Aβ Reduction” value ([2]; single oral dose 25 mg/kg) was 70% and the IC50 at 48 h [3] was > 200 µM.
In the case of `CO[C@H]1[C@H](C)C[C@@]2(Cc3ccc(C#N)cc3[C@]23N=C(N)N(C[C@@H]2COCCO2)C3=O)C[C@@H]1C` [Example 21], the IC50 [1] was 5 nM, the “% Aβ Reduction” value ([2]; single oral dose 50 mg/kg) was 59% and the IC50 at 48 h [3] was 400 µM.
With `CO[C@H]1[C@H](C)C[C@@]2(Cc3ccc(C#N)cc3[C@]23N=C(N)N(C[C@H]2COCCO2)C3=O)C[C@@H]1C` [Example 22] the IC50 [1] was 8 nM, the “% Aβ Reduction” value ([2]; single oral dose 12.5 mg/kg) was 45% and the IC50 at 48 h [3] was > 400 µM.
For `CO[C@H]1[C@H](C)C[C@@]2(Cc3ccc(C#N)cc3[C@]23N=C(N)N(CC2(F)CCOCC2)C3=O)C[C@@H]1C` [Example 23], the IC50 [1] was 12 nM, the “% Aβ Reduction” value ([2]; single oral dose 25 mg/kg) was 68% and the IC50 at 48 h [3] was > 200 µM.
For `CC[C@@H]1C[C@@]2(Cc3ccc(C#N)cc3[C@]23N=C(N)N(CC(C)(C)F)C3=O)C[C@H](C)[C@H]1OC` [Example 26], the IC50 [1] was 9 nM, the “% Aβ Reduction” value ([2]; single oral dose 25 mg/kg) was 71% and the IC50 at 48 h [3] was > 200 µM.
